# Data as given in patent publication US11850259B2, “Methods of treating viral infections affecting the respiratory tract using topically administered lithium agents” (United States Government as Represented by the Department …, priority 2020, dated 2023).
# Where two headings read alike, the source gives them in different places.
# How the values were obtained:
# [1] = system: MSU-induced gout in the rat ankle; conditions: photomicrograph at 2-times magnification after topical administration
# Source text: It was anticipated that the pathology may bring additional clarity to show lithium carbonate's action on the cytokine storm. Rat ankle samples banked in formalin were sent for microscopic analysis.
# [2] = serum of subjects tested; cited from earlier work
# [3] = applied to the epithelium of the skin, gout model
# Source text: Once that occurred, the lithium acted on the tissues and blood vessels surrounding the joint, preventing the entry of the inflammatory cells into the joint.
# GSK3B = GSK3B (Homo sapiens, UniProt P49841); conditions: in neutrophils; cited from earlier work
# [4] = system: MSU-induced gout in the rat ankle; conditions: for KC-GRO (KC/GRO) level: synovial fluid, eight hours post MSU-induced gout
# [5] = BRT rat MSU model, eight hours post MSU, topical application
# GSK3B, sequence (P49841 whole entry, species assumed): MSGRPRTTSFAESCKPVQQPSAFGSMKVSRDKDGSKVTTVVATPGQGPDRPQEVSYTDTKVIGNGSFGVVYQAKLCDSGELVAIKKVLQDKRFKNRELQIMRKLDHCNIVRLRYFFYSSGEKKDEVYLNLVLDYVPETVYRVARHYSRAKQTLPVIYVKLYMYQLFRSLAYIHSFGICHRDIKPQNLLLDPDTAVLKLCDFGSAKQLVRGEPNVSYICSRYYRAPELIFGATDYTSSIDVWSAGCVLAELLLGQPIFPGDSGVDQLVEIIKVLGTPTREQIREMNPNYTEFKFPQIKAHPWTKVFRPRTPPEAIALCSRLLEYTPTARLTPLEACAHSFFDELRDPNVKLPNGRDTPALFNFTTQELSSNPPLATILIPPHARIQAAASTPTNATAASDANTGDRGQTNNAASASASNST
smiles,measurement,setting,value
O=C([O-])[O-].[Li+].[Li+] [lithium carbonate],Edema,[1],minimal edema
same,Raft of white blood cells,[1],only a very small raft of white blood cells
same,Synovial hypertrophy,[1],minimal synovial hypertrophy
same,IL-1β in serum,[2],consistent increase
same,IL-6 in serum,[2],consistent increase
same,TNF-α in serum,[2],consistent increase
same,Penetration of skin epithelium,[3],penetrated to the synovium
same,Increase of TNF-α protein synthesis,GSK3B,> 3 fold
same,IL-1β level,[4]; [5],induction
same,IL-6 level,[4]; [5],induction
same,TNF-α level,[4]; [5],induction
same,KC-GRO (KC/GRO) level,"[4]; rat ankle, topical application",Attenuation
same,KC-GRO (KC/GRO) level,"[4]; rat ankle, topical application, listed as lithium",surprisingly lessened
same,Effect on gout,"[4]; topical application of 2% lithium carbonate, rat ankle",attenuated gout
